Experimental data: paper PMC11921344, “Antimicrobial peptide DiPGLa-H exhibits the most outstanding anti-infective activity among the PGLa variants based on a systematic comparison” (Applied and Environmental Microbiology, 2025)
Where no end group is shown, it is not given here.

Columns and labels:
E. coli ATCC25922 = assay type: cell-based, Escherichia coli
Procedure: The antibacterial activity was evaluated using a standard MIC and MBC assay according to the National Committee for Clinical Laboratory Standards (NCCLS). MIC, MBC assay, and time-kill curves for the optimal peptide are provided in the Supplementary Materials.
Antimicrobial Activity Assays. The antibacterial activity of the peptides was determined using a method designed from the National Committee for Clinical Laboratory Standards (NCCLS) in the United States. All the strains used in the experiment are preserved in the laboratory. Briefly, log phase bacterial cells were diluted in MHB to a final concentration of 0.5-1x10^5 CFU/mL. Subsequently, 50μL of different concentrations of polypeptides were incubated with 50 μL of bacterial solution in sterile 96-well plates. In the minimum inhibitory concentration (MIC) assay, […], and the minimum inhibitory concentration (MIC) was determined by the absorbance at 492 nm of the microplate reader, and the minimum inhibitory concentration (MIC) inhibited 95% of bacteria grow. Determination of minimum bactericidal concentration: the plate was incubated at 37°C for 4 hours, 50 μL of the mixture was taken out of each well, diluted with an appropriate amount of PBS, smeared on the agar plate, and cultured overnight. Colonies were counted and the initial CFU/well was retrospectively calculated the following day. The lowest concentration of peptide that kills 99.9% of bacterial cells is the minimum bactericidal concentration (µM), Each test was replicated at least 3 times.

E. coli K88 biofilm = assay: Anti-biofilm assay (crystal violet); assay type: cell-based, Escherichia coli
Procedure: (§1) The anti-biofilm activity of DiPGLa-H was evaluated using a crystal violet staining method. Briefly, 100 µL of bacterial suspension at 1 × 10^6 CFU/mL was incubated with DiPGLa-H (0–64 µM) for 48 h. The biofilm formed was stained with 1% crystal violet, and the absorbance was measured at 595 nm. The biofilm formation and mature biofilm removal assays were conducted. For biofilm formation, a bacterial suspension was incubated with DiPGLa-H, and biofilm content was quantified. To assess mature biofilm removal, pre-formed biofilms were treated with DiPGLa-H for 24 h, followed by quantification. Detailed Protocol in Supplementary Materials.
(§2) To test the ability of DiPGLa-H to […] on the test bacteria, a single colony was inoculated in MHB medium and incubated overnight at 37 °C and 180 r/min, and 1% of the bacterial suspension was taken and continued to be amplified and incubated for 2 h. […] The biofilm content was analyzed by measuring the absorbance value at 595 nm, and anhydrous ethanol was used as a blank control. […]

[1] = system: A. baumannii ATCC19606 biofilm; assay: Anti-biofilm assay (crystal violet); assay type: cell-based, Acinetobacter baumannii
Procedure: as §1, §2

[2] = system: P. aeruginosa ATCC27853 biofilm; assay: Anti-biofilm assay (crystal violet); assay type: cell-based, Pseudomonas aeruginosa
Procedure: as §1, §2

S. aureus Mu50 biofilm = assay: Anti-biofilm assay (crystal violet); assay type: cell-based, Staphylococcus aureus MRSA
Procedure: as §1, §2

E. coli K88 = assay: LPS binding assay (MIC with exogenous LPS); assay type: cell-based, Escherichia coli; conditions: increasing addition of external LPS, 37°C 24 h, 492 nm
Procedure: LPS (Sigma, USA) and LTA (Sigma, USA) were dissolved in water at a concentration of 5 mg/mL. Fifty microliters of DiPGLa-H with a concentration gradient of 1–64 μM and 50 µL of LPS or LTA master mix with different concentration gradients were added to the 96-well plate in 2-fold dilution, and finally, 100 µL of diluted E. coli K88 or S. aureus Mu50 was added, incubated at 37°C in a constant temperature incubator for 24 h. The MIC was determined by absorbance at 492 nm using an enzyme marker as the lowest peptide concentration that inhibited 95% of the bacterial growth.

[3] = not given; remark: listed apart in the source
E. coli = conditions: one range printed for E. coli and S. aureus; cited from earlier work
Procedure: (§3) PGLa, an amphibian 21-residue cationic AMP, with a net charge of +4, was found in the skin of the toad Xenopus laevis ([6]). The minimum inhibitory concentration (MIC) of PGLa against Escherichia coli 25922 and S. aureus 25923 were 10–50 μg/mL and 50–100 μg/mL, respectively ([6]). […] The rep ...

S. aureus = conditions: one range printed for E. coli and S. aureus; cited from earlier work
Procedure: as §3

[4] = 1×10^6 CFU/mL, DiPGLa-H 0-64 µM, 48 h, crystal violet, 595 nm
[5] = pre-formed biofilm treated with DiPGLa-H 0-64 µM for 24 h

**Q.** Which MBC E. coli ATCC25922 (E. coli ATCC25922; ATCC25922, 4 h) does the source give for “KIAKVALKALKIAKVALKAL-NH2 (C-terminus assumed) [DiPGLa-H]” here?
**A.** Its MBC E. coli ATCC25922 is 8 µM.

**Q.** What about the MIC E. coli ATCC25922 (E. coli ATCC25922; ATCC25922, 24 h) of the same substance?
**A.** The MIC E. coli ATCC25922 was 8 µM.

**Q.** What about the “concentration for effective inhibition of biofilm formation” value (E. coli K88 biofilm; [4]) of the same substance?
**A.** The value was “above 4 µM”.

**Q.** And the “concentration effectively eradicating biofilms” value (E. coli K88 biofilm; [5])?
**A.** Its value is “above 16 µM”.

**Q.** And the “concentration for effective inhibition of biofilm formation” value [1, 4]?
**A.** The value was “above 4 µM”.

**Q.** And the “concentration effectively eradicating biofilms” value [1, 5]?
**A.** Its value is “above 16 µM”.

**Q.** What about the “inhibition of biofilm formation” value [2, 4] of the same substance?
**A.** The value was “inhibition at higher concentrations”.

**Q.** And the biofilm elimination capacity ([2]; pre-formed biofilm treated with DiPGLa-H for 24 h, similar concentrations (above 16 µM))?
**A.** The biofilm elimination capacity was “less pronounced”.

**Q.** What about the “inhibition of biofilm formation” value (S. aureus Mu50 biofilm; [4]) of the same substance?
**A.** The value was “inhibition at higher concentrations”.

**Q.** And the “concentration effectively eradicating biofilms” value (S. aureus Mu50 biofilm; [5])?
**A.** The value was “above 16 µM”.

**Q.** And the “reduction of antibacterial activity by external LPS” value (E. coli K88)?
**A.** The value was 16 fold.

**Q.** What about the fold higher TIall vs PGLa-B1 of the same substance?
**A.** Its fold higher TIall vs PGLa-B1 is 64 fold.

**Q.** And the fold higher TIall vs kiadin-2 [3]?
**A.** The fold higher TIall vs kiadin-2 was 2.5 fold.

**Q.** What about the “MIC E. coli” value (E. coli) of the same substance?
**A.** The value was 0.75 to 1.5 µM.

**Q.** What about the “MIC S. aureus” value (S. aureus) of the same substance?
**A.** The value was 0.75 to 1.5 µM.
